These results are taken from patent US20150004704A1, “COMPOSITIONS AND METHODS FOR INCREASING OIL CONTENT IN ALGAE” (A.B. Seeds Ltd., priority 2009, published 2015).

Holding throughout (assay type): cell-based
Assay [1] relates to Chlamydomonas reinhardtii. Nature of the assay: Oil content by Nile Red staining with hormone supplements (Example 3). To be noted: 1 week, ratio to average of two controls, triplicate. As for the experimental part: (§1) TX, and were grown at 22° C. under constant white light at an intensity of 175 micromole photon m^−2 s−1. Chlamydomonas reinhardtii (UTEX strain 90), Chlorella vulgaris (UTEX 2714) and Haematococcus pluvialis (UTEX strain 2505) were grown in TAP medium {Harris E H: The Chlamydomonas sourcebook: A comprehensive guide to biology and laboratory use. New-York: Academic Press; 1989}. Phaeodactylum tricornutum (UTEX strain 642) was grown in a modified LDM medium {Lewin, R. A., 1959. The isolation of algae. Rev. algol. no. 3: 182-197}.
(§2) Algal cells of Chlamydomonas reinhardtii, Phaeodactylum tricornutum and Haematococcus pluvialis, were each grown to a concentration of 10^5 cells/ml and divided into 7×250-ml flasks, each containing 50 ml medium with the following supplements (all values are final hormone concentrations):
(§3) IAA: 1.0 mg/liter, NAA: 1.0 mg/liter, 2,4-D: 1.0 mg/liter, 6-BAP: 0.1 mg/liter, and Kinetin: 0.1 mg/liter.
(§4) Oil content was measured in triplicate 1 week after addition of the hormones to the medium, using Nile Red staining: 200 μl of algal cells were placed in a 96-well plate (Costar 3596), mixed with 10 μl of Nile Red solution (N3013, Sigma. 1 mg/ml stock in acetone) and incubated for 10 minutes at room-temperature. Fluorescence was measured using a Thermo Electron Fluroskan Ascent with excitation at 485 nm and emission at 590 nm 200 μl of fresh growth media with 10 μl of Nile Red were used for blank measurements. Fluorescence was normalized against cell density as measured by an EL×808 microplate reader (BIOTEK Instruments Inc) at 630 nm and verified by cell count of selected samples. For each treatment the normalized oil content was defined as the oil content divided by the cell density. The average of the normalized oil content of the triplicates for each treatment was calculated. The effect of each treatment was determined by the ratio between the average of the normalized oil content and the average of the two control experiments.

The subject of a further assay is Haematococcus pluvialis. The assay is described as above. To be noted: 1 week, ratio to average of two controls, triplicate. As for the experimental part:
as §1, §2, §3, §4

The test system of assay [2] is Phaeodactylum tricornutum. The description is as above. The note with it: 1 week, ratio to average of two controls, triplicate. On the procedure: as §1, §2, §3, §4
In assay [3] the test system is Chlamydomonas reinhardtii. Briefly: Cell density (OD 450 nm), C. reinhardtii with hormone supplements (Example 2). To be noted: 1 week after addition, duplicates. On the procedure:
(§5) Algae were grown to a concentration of 10^5 cells/ml and divided into 10×250-ml flasks, each containing 50 ml TAP medium with the following hormone supplements (all values are final hormone concentrations):
(§6) IAA: 0.5 mg/liter and 1 mg/liter, NAA: 0.5 mg/liter and 1 mg/liter, 6-BAP: 0.05 mg/liter and 0.1 mg/liter, and Kinetin: 0.05 mg/liter and 0.1 mg/liter. No supplement was added to Controls 1 and 2.
(§7) Oil content was measured, in duplicate, one week after addition of the hormones to the medium, using Nile Red staining. 200 μl of Chlamydomonas reinhardtii cells were placed in a 96-well plate (Costar 3596), mixed with 10 μl of Nile Red solution (N3013, Sigma. 1 mg/ml stock in acetone) and incubated for 15 minutes at room-temperature. Fluorescence was measured using a Thermo Electron Fluroskan Ascent with excitation at 544 nm and emission at 590 nm 200 μl of fresh growth media with 10 μl of Nile Red were used for blank measurements. Fluorescence was normalized against cell density as measured by an EL×808 microplate reader (BIOTEK Instruments Inc) at 450 nm and verified by cell count of selected samples.
(§8) The growth rate in each flask was estimated by measuring the OD (optical density, at 450 nm), which represents cell density. For each treatment the normalized oil content was defined as the oil content divided by the cell density. The average of the normalized oil content of the duplicates for each treatment was calculated. The effect of each treatment was determined by the ratio between the average of the normalized oil content and the average of the two control experiments.

In assay [4] the test system is Chlamydomonas reinhardtii. Briefly: Oil content by Nile Red staining, C. reinhardtii with hormone supplements (Example 2). The note with it: for Oil content: Nile Red fluorescence; for Oil content / Normalized oil content: duplicates; for Average normalized oil content: average of duplicates; for Normalized oil content: oil content divided by cell density; for Effect: ratio of average normalized oil content to average of two controls. Also on record: Oil content: unit not given here. On the procedure:
as §1, §5, §6, §7, §8

Several values for one entry are separate records, joined by “and”; a condition that tells them apart may be missing. Equal values may be shown once.

Regarding `O=C(O)COc1ccc(Cl)cc1Cl` [2,4-D, 2,4-dichlorophenoxy acetic acid], the entries for the “Effect of addition of hormones to growth medium on oil content” value (shortened to “Effect of addition of hormones”) (in assay [1] (supplement 1 mg/l); in the assay with Haematococcus pluvialis (supplement 1 mg/l); in assay [2] (supplement 1 mg/l)) were 1.21 ± 0.03, 1.69 ± 0.51 and 1.09 ± 0.04, respectively.
Regarding `c1ccc(CNc2ncnc3nc[nH]c23)cc1` [6-BAP, 6-Benzylaminopurine], the Cell density was 0.29 and 0.27 in assay [3] (supplement 0.05 mg/l); 0.28 and 0.27 in assay [3] (supplement 0.1 mg/l). The Oil content in assay [4] (supplement 0.05 mg/l, 1 week) is 2.709 and 2.587; in assay [4] (supplement 0.1 mg/l, 1 week) it was 3.04 and 2.891. Besides, the “Average normalized oil content” value in assay [4] (supplement 0.05 mg/l) is reported as 9.41; in assay [4] (supplement 0.1 mg/l) it was 10.65. The Normalized oil content in assay [4] (supplement 0.05 mg/l) was 9.28 and 9.55; in assay [4] (supplement 0.1 mg/l) it was 10.74 and 10.55. The results for the Effect in assay [4] (supplement 0.05 mg/l) and in assay [4] (supplement 0.1 mg/l) were 1.29 ± 0.02 and 1.46 ± 0.02, respectively. The “Effect of addition of hormones” value in assay [1] (supplement 0.1 mg/l) is 1.22 ± 0.13; with Haematococcus pluvialis (supplement 0.1 mg/l), 1.28 ± 0.20; in assay [2] (supplement 0.1 mg/l), 1.32 ± 0.20.
`O=C(O)Cc1c[nH]c2ccccc12` [IAA, Indole-3-acetic acid]: the Cell density was 0.29 and 0.26 in assay [3] (supplement 0.5 mg/l); 0.33 and 0.30 in assay [3] (supplement 1.0 mg/l). Besides, the Oil content in assay [4] (supplement 0.5 mg/l, 1 week) is 2.747 and 2.748; in assay [4] (supplement 1.0 mg/l, 1 week), 3.283 and 3.635. Besides, the results for the “Average normalized oil content” value in assay [4] (supplement 0.5 mg/l) and in assay [4] (supplement 1.0 mg/l) were 10.17 and 10.92, respectively. Besides, the Normalized oil content in assay [4] (supplement 0.5 mg/l) was 9.57 and 10.78; in assay [4] (supplement 1.0 mg/l), 9.89 and 11.96. The Effect in assay [4] (supplement 0.5 mg/l) came to 1.39 ± 0.11; in assay [4] (supplement 1.0 mg/l), 1.49 ± 0.20. The “Effect of addition of hormones” value in assay [1] (supplement 1 mg/l) is listed as 1.05 ± 0.11; with Haematococcus pluvialis (supplement 1 mg/l) it was 0.96 ± 0.15; in assay [2] (supplement 1 mg/l), 0.97 ± 0.04.
On to `c1coc(CNc2ncnc3[nH]cnc23)c1` [Kinetin], for which the Cell density in assay [3] (supplement 0.05 mg/l) is 0.31 and 0.28; in assay [3] (supplement 0.1 mg/l), 0.29 and 0.27. The “increase compared to controls (oil content)” value in assay [4] (0.1 mg/liter, 1 week, maximum effect) turned out to be 67%. In addition, the Oil content in assay [4] (supplement 0.05 mg/l, 1 week) was 3.023 and 3.071; in assay [4] (supplement 0.1 mg/l, 1 week) it was 3.503 and 3.38. In addition, the “Average normalized oil content” value in assay [4] (supplement 0.05 mg/l) came to 10.47; in assay [4] (supplement 0.1 mg/l) it was 12.24. For the same compound, the Normalized oil content in assay [4] (supplement 0.05 mg/l) is 9.85 and 11.09; in assay [4] (supplement 0.1 mg/l), 11.91 and 12.57. Further, the results for the Effect in assay [4] (supplement 0.05 mg/l) and in assay [4] (supplement 0.1 mg/l) were 1.43 ± 0.12 and 1.67 ± 0.06, respectively. Also, the “Effect of addition of hormones” value was 1.23 ± 0.03 in assay [1] (supplement 0.1 mg/l), 1.09 ± 0.03 with Haematococcus pluvialis (supplement 0.1 mg/l) and 1.19 ± 0.02 in assay [2] (supplement 0.1 mg/l).
For `O=C(O)Cc1cccc2ccccc12` [NAA, α-Naphthaleneacetic acid], the Cell density in assay [3] (supplement 0.5 mg/l) is 0.32 and 0.29; in assay [3] (supplement 1.0 mg/l), 0.31 and 0.30. For the same compound, the Oil content in assay [4] (supplement 0.5 mg/l, 1 week) was 2.677 and 2.59; in assay [4] (supplement 1.0 mg/l, 1 week), 3.059 and 3.232. Besides, the “Average normalized oil content” value in assay [4] (supplement 0.5 mg/l) is given as 8.67; in assay [4] (supplement 1.0 mg/l), 10.36. In addition, the Normalized oil content in assay [4] (supplement 0.5 mg/l) is 8.44 and 8.90; in assay [4] (supplement 1.0 mg/l) it was 9.84 and 10.88. Also, the Effect is listed as 1.19 ± 0.04 in assay [4] (supplement 0.5 mg/l) and 1.42 ± 0.10 in assay [4] (supplement 1.0 mg/l). Besides, the “Effect of addition of hormones” value in assay [1] (supplement 1 mg/l) was 0.99 ± 0.01; in the assay with Haematococcus pluvialis (supplement 1 mg/l), 1.49 ± 0.35; in assay [2] (supplement 1 mg/l), 0.90 ± 0.07.
